Source: US20260152501A1, “CYCLIN MODULATOR” (EUBULUS BIOTHERAPEUTICS (HONG KONG) LIMITED, priority 2022, published 2026)

What was measured:
Type in all cases: cell-based
[1] = system: Colo-205 cells; experiment: Cell proliferation experiment, Colo-205 cells; details: Homo sapiens, COLO 205, Colo-205 cells, Cell Titer-Glo; read-out: Cell antiproliferation data Colo-205
Protocol: (§1) Reagents: RPMI-1640 medium, McCoy's 5A medium, IMDM medium, MEM medium, L-15 medium, fetal bovine serum, Penicillin-Streptomycin double antibody, trypsin, etc., 2-mercaptoethanol, NEAA, pyruvate, etc.
(§2) The test cells were cultured in conventional ways, and the cells should be passed for at least 2 generations before plating.
(§3) 25 μL of 1000 HT-29, N87, SKOV3, Colo-205 and MDA-MB-231 cells were inoculated in a 384-well plate with black wall and transparent bottom, 25 μL of different concentrations of compounds were added, and the cells were cultured overnight under condition of 37° C. and 5% CO2.
(§4) 25 μL of 1500 H82 and H69 cells were inoculated in a 384-well plate with black wall and transparent bottom, 25 μL of different concentrations of compounds were added, and the cells were cultured for 72 hours under condition of 37° C. and 5% CO2. The 384-well plate was equilibrated at room temperature, 25 μL of Cell Titer-Glo® reagent was added to each well, and the cells were lysed by shaking on a horizontal shaking shaker for 2 minutes, incubated at room temperature for 10 minutes to stabilize the luminescent signal, and then the chemiluminescent signal was detected using Envision.
(§5) All cells were subjected to IC50 test for corresponding samples.
(§6) The fluorescence intensity of each well was detected using the Alarm blue method, and EC50 was calculated.
(§7) IC50 was calculated according to the following formula:
(§8) [formula] • wherein, Min, Max and Slope represent the minimum, maximum and slope respectively.

[2] = system: MDA-MB-231 cells; experiment: Cell proliferation experiment, MDA-MB-231 cells; details: Homo sapiens, Cell Titer-Glo, read-out: Cell antiproliferation data MDA-MB-231
Protocol: as §1, §2, §3, §4, §5, §6, §7, §8

[3] = system: N87 cells; experiment: Cell proliferation experiment, N87 cells; details: Cell Titer-Glo, read-out: Cell antiproliferation data N87
Protocol: as §1, §2, §3, §4, §5, §6, §7, §8

[4] = system: H69 cells; experiment: Cell proliferation experiment, H69 cells; details: Homo sapiens, NCI-H69, 72 h, cultured for 72 hours, Cell Titer-Glo, read-out: Cell antiproliferation data H69
Protocol: as §1, §2, §4
(§9) All cells were subjected to IC50 test for corresponding samples. […]
as §7, §8

[5] = system: H82 cells; experiment: Cell proliferation experiment, H82 cells; details: Homo sapiens, NCI-H82, cultured for 72 hours, Cell Titer-Glo, read-out: Cell antiproliferation data H82
Protocol: as §1, §2, §4, §9, §7, §8

[6] = system: HT-29 cells; experiment: Cell proliferation experiment, HT-29 cells; details: Homo sapiens, Cell Titer-Glo, read-out: Cell antiproliferation data HT-29
Protocol: as §1, §2, §3, §4, §5, §6, §7, §8

[7] = system: SKOV3 cells; experiment: Cell proliferation experiment, SKOV3 cells; details: Homo sapiens, SK-OV-3, SKOV3 cells, Cell Titer-Glo; read-out: Cell antiproliferation data SKOV3
Protocol: as §1, §2, §3, §4, §5, §6, §7, §8

SMILES | IC50 [1] [nM] | IC50 [2] [nM] | IC50 [3] [nM] | IC50 [4] [nM] | IC50 [5] [nM] | IC50 [6] [nM] | IC50 [7] [nM]
CC(C)n1cnc2c(NCc3ccc(-c4ccccc4)cc3)nc(N3CCC[C@H](N)C3)nc21 [UB-012, (S)-N-([1,1′-biphenyl]-4-ylmethyl)-2-(3-aminopiperidin-1-yl)-9-isopropyl-9H-purin-6-amine] | ≤ 100 | ≤ 100 | ≤ 100 | 100 to 300 | ≤ 100 | ≤ 100 | 100 to 300
CC(C)n1cnc2c(NCc3ccc(-c4ccccc4)cc3)nc(N3CCC[C@@H](N)C3)nc21 [UB-013, (R)-N-([1,1′-biphenyl]-4-ylmethyl)-2-(3-aminopiperidin-1-yl)-9-isopropyl-9H-purin-6-amine] | ≤ 100 | ≤ 100 | ≤ 100 | 100 to 300 | ≤ 100 | ≤ 100 | 100 to 300
CC(C)n1cnc2c(NCc3ccc(-c4ccccc4)cc3)nc(N[C@@H]3CCCNC3)nc21 [UB-014, (R)-N6-([1,1′-biphenyl]-4-ylmethyl)-9-isopropyl-N2-(Piperidin-3-yl)-9H-purin-2,6-diamine] | ≤ 100 | ≤ 100 | ≤ 100 | 100 to 300 | ≤ 100 | ≤ 100 | 100 to 300
CC(C)n1cnc2c(NCc3ccc(-c4ccccc4)cc3)nc(N[C@H]3CCCNC3)nc21 [UB-015, (S)-N6-([1,1′-biphenyl]-4-ylmethyl)-9-isopropyl-N2-(Piperidin-3-yl)-9H-purin-2,6-diamine] | ≤ 100 | ≤ 100 | ≤ 100 | 100 to 300 | ≤ 100 | ≤ 100 | 100 to 300
CC(C)n1cnc2c(NCc3ccc(-c4ccccc4)cc3)nc(N3CCC(N)CC3)nc21 [UB-017, N-([1,1′-biphenyl]-4-ylmethyl)-2-(4-amino-piperidin-1-yl)-9-isopropyl-9H-purin-6-amine] | 100 to 300 | ≤ 100 | ≤ 100 | 100 to 300 | 100 to 300 | ≤ 100 | 100 to 300
